From ChEMBL document CHEMBL1697731, “Cheminformatics analysis of assertions mined from literature that describe drug-induced liver injury in different species” (Chem Res Toxicol, 2010)

Assays:
Hepatotoxicity [1] = assay: Literature-mined compound from Fourches et al multi-species drug-induced liver injury (DILI) dataset, effect in humans; settings: human
Hepatotoxicity [2] = assay: Literature-mined compound from Fourches et al multi-species drug-induced liver injury (DILI) dataset, effect in rodents; settings: rodentia
Hepatotoxicity [3] = assay: Literature-mined compound from Fourches et al multi-species drug-induced liver injury (DILI) dataset, effect in non-rodents

CC(C)(C)C(=O)OCOP(=O)(COCCn1cnc2c(N)ncnc21)OCOC(=O)C(C)(C)C [ADEFOVIR DIPIVOXIL]
Hepatotoxicity (Hepatotoxicity [1]): drug-induced liver injury reported | Hepatotoxicity (Hepatotoxicity [2]): drug-induced liver injury reported | Hepatotoxicity (Hepatotoxicity [3]): no drug-induced liver injury reported

Nc1ncnc2nc[nH]c12 [ADENINE]
Hepatotoxicity (Hepatotoxicity [1]): no drug-induced liver injury reported | Hepatotoxicity (Hepatotoxicity [2]): drug-induced liver injury reported | Hepatotoxicity (Hepatotoxicity [3]): no drug-induced liver injury reported

Nc1ncnc2c1ncn2[C@@H]1O[C@H](COP(=O)(O)OP(=O)(O)OP(=O)(O)O)[C@@H](O)[C@H]1O [ADENOSINE TRIPHOSPHATE]
Hepatotoxicity (Hepatotoxicity [1]): no drug-induced liver injury reported | Hepatotoxicity (Hepatotoxicity [2]): drug-induced liver injury reported | Hepatotoxicity (Hepatotoxicity [3]): no drug-induced liver injury reported

Nc1ncnc2c1ncn2[C@@H]1O[C@H](CO)[C@@H](O)[C@H]1O [ADENOSINE]
Hepatotoxicity (Hepatotoxicity [1]): drug-induced liver injury reported | Hepatotoxicity (Hepatotoxicity [2]): drug-induced liver injury reported | Hepatotoxicity (Hepatotoxicity [3]): drug-induced liver injury reported

CC[C@H]1[C@@H]2C[C@H]3[C@@H]4N(C)c5ccccc5[C@]45C[C@@H]([C@@H]2[C@H]5O)N3[C@@H]1O [AJMALINE]
Hepatotoxicity (Hepatotoxicity [1]): drug-induced liver injury reported | Hepatotoxicity (Hepatotoxicity [2]): no drug-induced liver injury reported | Hepatotoxicity (Hepatotoxicity [3]): no drug-induced liver injury reported

N[C@@H](CN(O)N=O)C(=O)O [ALANOSINE]
Hepatotoxicity (Hepatotoxicity [1]): no drug-induced liver injury reported | Hepatotoxicity (Hepatotoxicity [2]): drug-induced liver injury reported | Hepatotoxicity (Hepatotoxicity [3]): no drug-induced liver injury reported

CS(=O)(=O)O.C[C@H](N)C(=O)N[C@@H](C)C(=O)N[C@H]1[C@@H]2CN(c3nc4c(cc3F)c(=O)c(C(=O)O)cn4-c3ccc(F)cc3F)C[C@@H]21 [ALATROFLOXACIN MESYLATE]
Hepatotoxicity (Hepatotoxicity [1]): drug-induced liver injury reported | Hepatotoxicity (Hepatotoxicity [2]): no drug-induced liver injury reported | Hepatotoxicity (Hepatotoxicity [3]): no drug-induced liver injury reported

CCCSc1ccc2nc(NC(=O)OC)[nH]c2c1 [ALBENDAZOLE]
Hepatotoxicity (Hepatotoxicity [1]): drug-induced liver injury reported | Hepatotoxicity (Hepatotoxicity [2]): no drug-induced liver injury reported | Hepatotoxicity (Hepatotoxicity [3]): no drug-induced liver injury reported

CC(C)(C)NCC(O)c1ccc(O)c(CO)c1 (centres undefined) [ALBUTEROL]
Hepatotoxicity (Hepatotoxicity [1]; Liver): no drug-induced liver injury reported | Hepatotoxicity (Hepatotoxicity [2]; Liver): drug-induced liver injury reported | Hepatotoxicity (Hepatotoxicity [3]; Liver): no drug-induced liver injury reported

CCO [ALCOHOL]
Hepatotoxicity (Hepatotoxicity [1]; Liver): drug-induced liver injury reported | Hepatotoxicity (Hepatotoxicity [2]; Liver): drug-induced liver injury reported | Hepatotoxicity (Hepatotoxicity [3]; Liver): drug-induced liver injury reported

C=C1/C(=C\C=C2/CCC[C@]3(C)[C@@H]([C@H](C)CCCC(C)C)CC[C@@H]23)C[C@@H](O)C[C@@H]1O [ALFACALCIDOL]
Hepatotoxicity (Hepatotoxicity [1]): drug-induced liver injury reported | Hepatotoxicity (Hepatotoxicity [2]): no drug-induced liver injury reported | Hepatotoxicity (Hepatotoxicity [3]): no drug-induced liver injury reported

COc1cc2nc(N(C)CCCNC(=O)C3CCCO3)nc(N)c2cc1OC (centres undefined) [ALFUZOSIN]
Hepatotoxicity (Hepatotoxicity [1]): drug-induced liver injury reported | Hepatotoxicity (Hepatotoxicity [2]): no drug-induced liver injury reported | Hepatotoxicity (Hepatotoxicity [3]): no drug-induced liver injury reported

CC1=C(/C=C/C(C)=C\C=C\C(C)=C\C(=O)O)C(C)(C)CCC1 [ALITRETINOIN]
Hepatotoxicity (Hepatotoxicity [1]): drug-induced liver injury reported | Hepatotoxicity (Hepatotoxicity [2]): drug-induced liver injury reported | Hepatotoxicity (Hepatotoxicity [3]): no drug-induced liver injury reported

NC(=O)NC1NC(=O)NC1=O (centres undefined) [ALLANTOIN]
Hepatotoxicity (Hepatotoxicity [1]): no drug-induced liver injury reported | Hepatotoxicity (Hepatotoxicity [2]): drug-induced liver injury reported | Hepatotoxicity (Hepatotoxicity [3]): no drug-induced liver injury reported

C=CCC1(CC=C)C(=O)NC(=O)NC1=O [ALLOBARBITAL]
Hepatotoxicity (Hepatotoxicity [1]): no drug-induced liver injury reported | Hepatotoxicity (Hepatotoxicity [2]): drug-induced liver injury reported | Hepatotoxicity (Hepatotoxicity [3]): no drug-induced liver injury reported

Oc1ncnc2[nH]ncc12 [ALLOPURINOL]
Hepatotoxicity (Hepatotoxicity [1]): drug-induced liver injury reported | Hepatotoxicity (Hepatotoxicity [2]): drug-induced liver injury reported | Hepatotoxicity (Hepatotoxicity [3]): no drug-induced liver injury reported

CCCCC[C@H](O)/C=C/[C@H]1[C@H](O)CC(=O)[C@@H]1CCCCCCC(=O)O [ALPROSTADIL]
Hepatotoxicity (Hepatotoxicity [1]): drug-induced liver injury reported | Hepatotoxicity (Hepatotoxicity [2]): drug-induced liver injury reported | Hepatotoxicity (Hepatotoxicity [3]): drug-induced liver injury reported

CCN(CCCc1ccccc1)CCCc1ccccc1 [ALVERINE]
Hepatotoxicity (Hepatotoxicity [1]): drug-induced liver injury reported | Hepatotoxicity (Hepatotoxicity [2]): no drug-induced liver injury reported | Hepatotoxicity (Hepatotoxicity [3]): no drug-induced liver injury reported

CN1CC[C@H](c2c(O)cc(O)c3c(=O)cc(-c4ccccc4Cl)oc23)[C@H](O)C1 [ALVOCIDIB]
Hepatotoxicity (Hepatotoxicity [1]): drug-induced liver injury reported | Hepatotoxicity (Hepatotoxicity [2]): no drug-induced liver injury reported | Hepatotoxicity (Hepatotoxicity [3]): no drug-induced liver injury reported

NC12CC3CC(CC(C3)C1)C2 [AMANTADINE]
Hepatotoxicity (Hepatotoxicity [1]): no drug-induced liver injury reported | Hepatotoxicity (Hepatotoxicity [2]): drug-induced liver injury reported | Hepatotoxicity (Hepatotoxicity [3]): no drug-induced liver injury reported

COC(c1ccccc1)(c1ccccc1)[C@H](Oc1nc(C)cc(C)n1)C(=O)O [AMBRISENTAN]
Hepatotoxicity (Hepatotoxicity [1]): no drug-induced liver injury reported | Hepatotoxicity (Hepatotoxicity [2]): no drug-induced liver injury reported | Hepatotoxicity (Hepatotoxicity [3]): drug-induced liver injury reported

Nc1c(Br)cc(Br)cc1CN[C@H]1CC[C@H](O)CC1 [AMBROXOL]
Hepatotoxicity (Hepatotoxicity [1]): no drug-induced liver injury reported | Hepatotoxicity (Hepatotoxicity [2]): drug-induced liver injury reported | Hepatotoxicity (Hepatotoxicity [3]): no drug-induced liver injury reported

NCC[C@H](O)C(=O)N[C@@H]1C[C@H](N)[C@@H](O[C@H]2O[C@H](CN)[C@@H](O)[C@H](O)[C@H]2O)[C@H](O)[C@H]1O[C@H]1O[C@H](CO)[C@@H](O)[C@H](N)[C@H]1O [AMIKACIN]
Hepatotoxicity (Hepatotoxicity [1]): drug-induced liver injury reported | Hepatotoxicity (Hepatotoxicity [2]): no drug-induced liver injury reported | Hepatotoxicity (Hepatotoxicity [3]): drug-induced liver injury reported

N=C(N)NC(=O)c1nc(Cl)c(N)nc1N [AMILORIDE]
Hepatotoxicity (Hepatotoxicity [1]): drug-induced liver injury reported | Hepatotoxicity (Hepatotoxicity [2]): drug-induced liver injury reported | Hepatotoxicity (Hepatotoxicity [3]): no drug-induced liver injury reported

O=C(O)CCCCCCNC1c2ccccc2CCc2ccccc21 [AMINEPTINE]
Hepatotoxicity (Hepatotoxicity [1]): drug-induced liver injury reported | Hepatotoxicity (Hepatotoxicity [2]): drug-induced liver injury reported | Hepatotoxicity (Hepatotoxicity [3]): no drug-induced liver injury reported

Nc1ccc(C(=O)O)cc1 [AMINOBENZOIC ACID]
Hepatotoxicity (Hepatotoxicity [1]): no drug-induced liver injury reported | Hepatotoxicity (Hepatotoxicity [2]): drug-induced liver injury reported | Hepatotoxicity (Hepatotoxicity [3]): no drug-induced liver injury reported

NCCCCCC(=O)O [AMINOCAPROIC ACID]
Hepatotoxicity (Hepatotoxicity [1]): drug-induced liver injury reported | Hepatotoxicity (Hepatotoxicity [2]): no drug-induced liver injury reported | Hepatotoxicity (Hepatotoxicity [3]): no drug-induced liver injury reported

CCC1(c2ccc(N)cc2)CCC(=O)NC1=O (centres undefined) [AMINOGLUTETHIMIDE]
Hepatotoxicity (Hepatotoxicity [1]): no drug-induced liver injury reported | Hepatotoxicity (Hepatotoxicity [2]): drug-induced liver injury reported | Hepatotoxicity (Hepatotoxicity [3]): no drug-induced liver injury reported
